Data published in patent publication US11739074B2, “Ras inhibitors” (Revolution Medicines, Inc., priority 2019, dated 2023).
Like-named read-outs stand apart in the source and are kept apart here.

Tests used:
NRAS G12C = target: T1, NRAS G12C (Homo sapiens, UniProt P01111+P62937, G12C); experiment: Ras-Raf disruption/FRET/MOA assay, NRAS G12C; format: biochemical
T1 construct: His6
How it was run: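 Disruption of Ras:RAF binding was read as a drop in TR-FRET ratio versus DMSO controls. The buffer was 25 mM HEPES pH 7.3, 0.002% Tween20, 0.1% BSA, 100 mM NaCl and 5 mM MgCl2. Compounds were tested as a 10-point 3-fold dilution series from 30 μM. Detection used 10 nM anti-His Eu-W1024 and 50 nM anti-GST allophycocyanin.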

KRAS G13D = KRAS G13D (Homo sapiens, UniProt P01116+P62937, G13D); experiment: Ras-Raf disruption/FRET/MOA assay, KRAS G13D; format: biochemical; conditions: disruption of BRAF RBD binding, with Cyclophilin A; read-out: KRAS G13D FRET IC50
KRAS G13D, sequence (P01116 1-169 isoform P01116-2 G13D limits assumed): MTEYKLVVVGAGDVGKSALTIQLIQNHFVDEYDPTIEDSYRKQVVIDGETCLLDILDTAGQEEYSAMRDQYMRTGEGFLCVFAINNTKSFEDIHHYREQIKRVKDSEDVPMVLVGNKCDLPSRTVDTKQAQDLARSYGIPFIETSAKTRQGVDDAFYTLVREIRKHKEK
KRAS G13D, sequence (P62937 whole entry): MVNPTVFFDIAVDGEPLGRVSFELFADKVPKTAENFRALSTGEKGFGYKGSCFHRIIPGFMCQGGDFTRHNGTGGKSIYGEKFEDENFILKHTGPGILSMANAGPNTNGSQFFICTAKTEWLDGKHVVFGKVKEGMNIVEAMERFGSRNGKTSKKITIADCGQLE
How it was run: (§1)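 Compounds promote a Cyclophilin A (25 μM) ternary complex with His6-KRAS-GMPPNP, which blocks binding of GST-BRAF^RBD (50 nM). Titration runs to a 30 μM top concentration, and loss of RAF binding is detected by TR-FRET.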

AsPC-1 (K-Ras G12D) [1] = experiment: CellTiter-Glo cell viability assay, AsPC-1; format: cell-based; conditions: Homo sapiens, ASPC1, 120 h
How it was run: (§2)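 Test compounds were dispensed directly onto seeded cells, and on day 5 plates were brought to room temperature for about 30 minutes before CellTiter-Glo luminescence was read. Signals were expressed as percent of the mean DMSO control and fitted with a four-parameter logistic model.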

KRAS G12S = KRAS G12S (Homo sapiens, UniProt P01116+P62937, G12S); experiment: Ras-Raf disruption/FRET/MOA assay, KRAS G12S; format: biochemical; conditions: disruption of BRAF RBD binding, with Cyclophilin A; read-out: KRAS G12S FRET IC50
KRAS G12S, sequence (P01116 1-169 isoform P01116-2 G12S limits assumed): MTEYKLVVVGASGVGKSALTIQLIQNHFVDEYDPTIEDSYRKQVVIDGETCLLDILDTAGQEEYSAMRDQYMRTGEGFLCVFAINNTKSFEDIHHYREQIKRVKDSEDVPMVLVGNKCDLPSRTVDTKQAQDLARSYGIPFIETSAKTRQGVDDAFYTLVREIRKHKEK
KRAS G12S, sequence (P62937 whole entry): as the sequence (P62937 whole entry) above
How it was run: as §1

KRAS G12D = KRAS G12D (Homo sapiens, UniProt P01116+P62937, G12D); experiment: Ras-Raf disruption/FRET/MOA assay, KRAS G12D; format: biochemical; conditions: disruption of BRAF RBD binding, with Cyclophilin A; read-out: KRAS G12D FRET IC50
KRAS G12D, sequence (P01116 1-169 isoform P01116-2 G12D limits assumed): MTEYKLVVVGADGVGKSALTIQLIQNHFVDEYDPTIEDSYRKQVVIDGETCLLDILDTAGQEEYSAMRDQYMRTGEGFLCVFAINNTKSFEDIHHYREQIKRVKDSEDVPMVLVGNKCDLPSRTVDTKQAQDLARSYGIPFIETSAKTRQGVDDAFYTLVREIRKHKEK
KRAS G12D, sequence (P62937 whole entry): as the sequence (P62937 whole entry) above
How it was run: as §1

KRAS WT = KRAS WT (Homo sapiens, UniProt P01116+P62937); experiment: Ras-Raf disruption/FRET/MOA assay, KRAS WT; format: biochemical; conditions: disruption of BRAF RBD binding, with Cyclophilin A; read-out: KRAS WT FRET IC50
KRAS WT, sequence (P01116 1-169 isoform P01116-2 limits assumed): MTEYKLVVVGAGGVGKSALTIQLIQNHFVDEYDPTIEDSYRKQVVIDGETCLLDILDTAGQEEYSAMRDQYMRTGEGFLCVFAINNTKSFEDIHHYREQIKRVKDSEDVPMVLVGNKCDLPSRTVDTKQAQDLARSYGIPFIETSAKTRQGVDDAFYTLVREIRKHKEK
KRAS WT, sequence (P62937 whole entry): as the sequence (P62937 whole entry) above
How it was run: as §1

AsPC-1 (K-Ras G12D) [2] = experiment: Potency assay: pERK in AsPC-1 cells; format: cell-based; conditions: Homo sapiens
KRAS G12V = KRAS G12V (Homo sapiens, UniProt P01116+P62937, G12V); experiment: Ras-Raf disruption/FRET/MOA assay, KRAS G12V; format: biochemical; conditions: disruption of BRAF RBD binding, with Cyclophilin A; read-out: KRAS G12V FRET IC50
KRAS G12V, sequence (P01116 1-169 isoform P01116-2 G12V limits assumed): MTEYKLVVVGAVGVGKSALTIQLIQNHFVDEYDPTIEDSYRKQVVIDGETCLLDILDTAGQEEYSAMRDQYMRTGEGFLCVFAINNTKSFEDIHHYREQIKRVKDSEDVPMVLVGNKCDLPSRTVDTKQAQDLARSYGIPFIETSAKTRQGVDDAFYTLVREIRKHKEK
KRAS G12V, sequence (P62937 whole entry): as the sequence (P62937 whole entry) above
How it was run: as §1

KRAS Q61H = KRAS Q61H (Homo sapiens, UniProt P01116+P62937, Q61H); experiment: Ras-Raf disruption/FRET/MOA assay, KRAS Q61H; format: biochemical; conditions: KRAS Q61H; read-out: KRAS Q61H FRET data IC50
KRAS Q61H, sequence (P01116 1-169 isoform P01116-2 Q61H limits assumed): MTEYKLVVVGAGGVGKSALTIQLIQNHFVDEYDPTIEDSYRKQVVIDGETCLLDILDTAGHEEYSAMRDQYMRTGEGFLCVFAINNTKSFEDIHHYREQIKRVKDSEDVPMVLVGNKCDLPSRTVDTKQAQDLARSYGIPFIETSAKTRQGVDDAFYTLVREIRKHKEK
KRAS Q61H, sequence (P62937 whole entry, the tested form may be a part): as the sequence (P62937 whole entry) above
Description: (§3) Disruption of B-Raf Ras-Binding Domain (BRAF^RBD) Interaction with K-Ras by Compounds of the Invention (Also Called a FRET Assay or an MOA Assay)
(§4) Note—The following protocol describes a procedure for monitoring disruption of K-Ras G12C (GMP-PNP) binding to BRAF^RBD by a compound of the invention. This protocol may also be executed substituting other Ras proteins or nucleotides, such as K-Ras G12D and K-Ras G13D.
(§5) The purpose of this biochemical assay was to measure the ability of test compounds to facilitate ternary complex formation between a nucleotide-loaded K-Ras isoform and Cyclophilin A; the resulting ternary complex disrupts binding to a BRAF^RBD construct, inhibiting K-Ras signaling through a RAF effector.
(§6) In assay buffer containing 25 mM HEPES pH 7.3, 0.002% Tween20, 0.1% BSA, 100 mM NaCl and 5 mM MgCl2, tagless Cyclophilin A, His6-K-Ras-GMPPNP, and GST-BRAF^RBD were combined in a 384-well assay plate at final concentrations of 25 μM, 12.5 nM, and 50 nM, respectively. Compound was present in plate wells as a 10-point 3-fold dilution series starting at a final concentration of 30 μM. After incubation at 25° C. for 3 hours, a mixture of anti-His Eu-W1024 and anti-GST allophycocyanin was then added to assay sample wells at final concentrations of 10 nM and 50 nM, respectively, and the reaction incubated for an additional 1.5 hours. […] Compounds that facilitate disruption of a K-Ras:RAF complex were identified as those eliciting a decrease in the TR-FRET ratio relative to DMSO control wells.

NRAS Q61R = target: T2, NRAS Q61R (Homo sapiens, UniProt P01111+P62937, Q61R); experiment: Ras-Raf disruption/FRET/MOA assay, NRAS Q61R; format: biochemical
T2 construct: His6
T2 sequence (P01111 whole entry Q61R): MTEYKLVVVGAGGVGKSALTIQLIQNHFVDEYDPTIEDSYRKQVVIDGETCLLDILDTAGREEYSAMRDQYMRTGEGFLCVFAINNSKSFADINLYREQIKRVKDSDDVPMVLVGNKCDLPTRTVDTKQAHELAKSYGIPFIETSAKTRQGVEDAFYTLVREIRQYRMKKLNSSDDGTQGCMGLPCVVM
T2 sequence (P62937 whole entry): as the sequence (P62937 whole entry) above
Description: as §3, §4, §5, §6

KRAS G12C = KRAS G12C (Homo sapiens, UniProt P01116+P62937, G12C); experiment: Ras-Raf disruption/FRET/MOA assay, KRAS G12C; format: biochemical; conditions: disruption of BRAF RBD binding, with Cyclophilin A; read-out: KRAS G12C FRET IC50
KRAS G12C, sequence (P01116 1-169 isoform P01116-2 G12C limits assumed): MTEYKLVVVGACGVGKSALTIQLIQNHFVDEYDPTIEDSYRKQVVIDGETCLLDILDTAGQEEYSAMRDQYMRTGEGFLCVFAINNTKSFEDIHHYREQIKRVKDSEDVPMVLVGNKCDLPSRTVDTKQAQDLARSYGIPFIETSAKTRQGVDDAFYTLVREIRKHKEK
KRAS G12C, sequence (P62937 whole entry): as the sequence (P62937 whole entry) above
How it was run: as §1

NRAS WT = target: T3, NRAS WT (Homo sapiens, UniProt P01111+P62937); experiment: Ras-Raf disruption/FRET/MOA assay, NRAS WT; format: biochemical
T3 construct: His6
T3 sequence (P01111 whole entry): as the sequence (P01111 whole entry Q61R) above, with R61Q counted along it
T3 sequence (P62937 whole entry): as the sequence (P62937 whole entry) above
Description: as §3, §4, §5, §6

KRAS G13C = KRAS G13C (Homo sapiens, UniProt P01116+P62937, G13C); experiment: Ras-Raf disruption/FRET/MOA assay, KRAS G13C; format: biochemical; conditions: disruption of BRAF RBD binding, with Cyclophilin A; read-out: KRAS G13C FRET IC50
KRAS G13C, sequence (P01116 1-169 isoform P01116-2 G13C limits assumed): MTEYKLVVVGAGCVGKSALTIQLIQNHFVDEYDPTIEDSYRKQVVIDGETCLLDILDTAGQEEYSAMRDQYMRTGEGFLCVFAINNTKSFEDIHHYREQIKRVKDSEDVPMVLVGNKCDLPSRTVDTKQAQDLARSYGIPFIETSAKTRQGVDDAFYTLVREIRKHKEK
KRAS G13C, sequence (P62937 whole entry): as the sequence (P62937 whole entry) above
How it was run: as §1

NRAS Q61K = target: T4, NRAS Q61K (Homo sapiens, UniProt P01111+P62937, Q61K); experiment: Ras-Raf disruption/FRET/MOA assay, NRAS Q61K; format: biochemical
T4 construct: His6
T4 sequence (P01111 whole entry Q61K): as the sequence (P01111 whole entry Q61R) above, with R61K counted along it
T4 sequence (P62937 whole entry): as the sequence (P62937 whole entry) above
Description: as §3, §4, §5, §6

NCI-H358 (K-Ras G12C) = experiment: CellTiter-Glo cell viability assay, H358; format: cell-based; conditions: Homo sapiens, NCI-H358, 120 h
How it was run: as §2

[3] = NRAS G12C, read-out: NRAS G12C FRET data IC50
[4] = AsPC-1, K-Ras G12D, 5-day treatment, read-out: AsPC-1 Cell Viability IC50
[5] = ASPC1, AsPC-1 cells, K-Ras G12D, read-out: pERK EC50 (AsPC-1 KRAS G12D)
[6] = NRAS Q61R, read-out: NRAS Q61R FRET data IC50
[7] = NRAS WT, read-out: NRAS WT FRET data IC50
[8] = NRAS Q61K, read-out: NRAS Q61K FRET data IC50
[9] = read-out: AsPC-1 Cell Viability IC50
[10] = ASPC1, read-out: pERK EC50 (AsPC-1 KRAS G12D)

T1 sequence (P01111 whole entry G12C): as the sequence (P01111 whole entry Q61R) above, with G12C, R61Q counted along it
T1 sequence (P62937 whole entry): as the sequence (P62937 whole entry) above

SMILES | IC50 (NRAS G12C; [3]) [nM] | IC50 (KRAS G13D) [nM] | IC50 (AsPC-1 (K-Ras G12D) [1]; [4]) [nM] | IC50 (KRAS G12S) [nM] | IC50 (KRAS G12D) [nM] | IC50 (KRAS WT) [nM] | EC50 (AsPC-1 (K-Ras G12D) [2]; [5]) [nM] | IC50 (KRAS G12V) [nM] | IC50 (KRAS Q61H) [nM] | IC50 (NRAS Q61R; [6]) [nM] | IC50 (KRAS G12C) [nM] | IC50 (NRAS WT; [7]) [nM] | IC50 (KRAS G13C) [nM] | IC50 (NRAS Q61K; [8]) [nM] | further results
CCn1c(-c2cccnc2[C@H](C)OC)c2c3cc(ccc31)-c1cc(cc(C(F)F)c1)C[C@H](NC(=O)[C@H](C1CCCC1)N1CC[C@]3(CCN(C(=O)[C@H]4CN4)C3)C1=O)C(=O)N1CCC[C@H](N1)C(=O)OCC(C)(C)C2 [Compound 233] | 100 to 1000 | 1000 to 10000 | 1000 to 10000 | 1000 to 10000 | 1000 to 10000 | 1000 to 10000 | < 5000 | 1000 to 10000 | 100 to 1000 | > 10000 | 100 to 1000 | 1000 to 10000 | 100 to 1000 | 1000 to 10000 | 
CCn1c(-c2cccnc2[C@H](C)OC)c2c3cc(ccc31)-c1cccc(c1)C[C@H](NC(=O)[C@H](C1CCCC1)N1CC[C@]3(CCN(C(=O)[C@@H]4N[C@@H]4C4CC4)C3)C1=O)C(=O)N1CCC[C@H](N1)C(=O)OCC(C)(C)C2 [Compound 313] |  |  | 10 to 100 |  |  |  | < 5000 |  | 100 to 1000 |  |  |  |  |  | IC50 (NCI-H358 (K-Ras G12C); NCI-H358, K-Ras G12C, 5-day treatment, read-out: H358 Cell Viability IC50): 100 to 1000 nM
CCn1c(-c2cccnc2[C@H](C)OC)c2c3cc(ccc31)-c1cc(O)cc(c1)C[C@H](NC(=O)C(C(C)C)N(C)C(=O)[C@@]1(C)CCCN1C(=O)[C@H]1CN1)C(=O)N1CCC[C@H](N1)C(=O)OCC(C)(C)C2 (stereo partly drawn) [Compound 240] |  |  | 1000 to 10000 |  |  |  | < 5000 |  |  |  |  |  |  |  | IC50 (NRAS G12C; NRAS G12C FRET data IC50, NRAS G12C): 100 to 1000 nM; IC50 (NRAS Q61R): 1000 to 10000 nM; IC50 (NRAS WT): 1000 to 10000 nM; IC50 (NRAS Q61K): > 10000 nM
CCn1c(-c2cnccc2COC)c2c3cc(ccc31)-c1cc(O)cc(c1)C[C@H](NC(=O)[C@H](C(C)C)N(C)C(=O)CN(C)C(=O)[C@@H]1CN1S(C)(=O)=O)C(=O)N1CCC[C@H](N1)C(=O)OCC(C)(C)C2 (stereo partly drawn) [Compound 37] | 10 to 100 | 100 to 1000 |  | 10 to 100 | 100 to 1000 | 10 to 100 |  | 100 to 1000 | 10 to 100 | 100 to 1000 | 10 to 100 | 10 to 100 | 10 to 100 | 100 to 1000 | IC50 (AsPC-1 (K-Ras G12D) [1]; [9]): > 10000 nM
CCn1c(-c2cccnc2[C@H](C)OC)c2c3cc(ccc31)-c1cc(O)cc(c1)C[C@H](NC(=O)[C@H](C(C)C)N1CO[C@@]3(CCN(C(=O)[C@H]4CN4)C3)C1=O)C(=O)N1CCC[C@H](N1)C(=O)OCC(C)(C)C2 [Compound 232] | 10 to 100 | 100 to 1000 | 1000 to 10000 | 100 to 1000 | 1000 to 10000 | 100 to 1000 | < 5000 | 100 to 1000 | 10 to 100 | 100 to 1000 | 10 to 100 | 100 to 1000 | 10 to 100 | 100 to 1000 | 
CCn1c(-c2cnccc2COC)c2c3cc(ccc31)-c1cc(O)cc(c1)C[C@H](NC(=O)[C@H](C(C)C)N(C)C(=O)CN(C)C(=O)[C@H]1CN1S(C)(=O)=O)C(=O)N1CCC[C@H](N1)C(=O)OCC(C)(C)C2 (stereo partly drawn) [Example 36, (2R)—N-(2-(((2S)-1-(((6^3S,4S)-1^1-ethyl-2^5-hydroxy-1^2-(4-(methoxymethyl)pyridin-3-yl)-10,10-dimethyl-5,7-dioxo-6^1,6^2,6^3,6^4,6^5,6^6-hexahydro-1^1H-8-oxa-1(5,3)-indola-6(1,3)-pyridazina-2(1,3)-benzenacycloundecaphane-4-yl)amino)-3-methyl-1-oxobutan-2-yl)(methyl)amino)-2-oxoethyl)-N-methyl-1-(methylsulfonyl)aziridine-2-carboxamide] | 10 to 100 | 100 to 1000 |  | 10 to 100 | 100 to 1000 | 10 to 100 |  | 10 to 100 | 10 to 100 | 100 to 1000 | 10 to 100 | 100 to 1000 | 10 to 100 | 100 to 1000 | IC50 (AsPC-1 (K-Ras G12D) [1]; [9]): > 10000 nM; EC50 (AsPC-1 (K-Ras G12D) [2]; [10]): < 5000 nM
CCn1c(-c2cccnc2[C@H](C)OC)c2c3cc(ccc31)-c1cc(O)cc(c1)C[C@H](NC(=O)[C@H](C(C)C)N(C)C(=O)CN(C)C(=O)[C@@H]1CN1CCCOC(C)=O)C(=O)N1CCC[C@H](N1)C(=O)OCC(C)(C)C2 (stereo partly drawn) [Compound 267] |  |  |  |  |  |  |  |  |  |  |  |  |  |  | IC50 (AsPC-1 (K-Ras G12D) [1]; read-out: AsPC-1 Cell Viability IC50, AsPC-1, K-Ras G12D, 5-day treatment): 100 to 1000 nM; EC50 (AsPC-1 (K-Ras G12D) [2]; [10]): < 5000 nM; IC50 (NCI-H358 (K-Ras G12C); read-out: H358 Cell Viability IC50, NCI-H358, K-Ras G12C, 5-day treatment): < 10 nM; IC50 (NRAS WT): 10 to 100 nM
